Details of data set [1]: method as in PMID 11081986. Conditions: cited from earlier work.
Data set [2] is described as follows: MTT cytotoxicity assay in BHK-21 cells. The format is cell-based. Conditions: hamster, BHK-21 cells (baby hamster kidney), 24 h post-treatment. The protocol: (§1) Cytotoxicity of each compound towards cells for four selected cell lines in the range of 1 to 500 µM was evaluated using the MTT (3-(4,5-dimethylthiazol-2-yl)-2,5-diphenyltetrazolium bromide) assay at 24 h post-treatment, in parallel with control and vehicle-treated cells (0.1% dimethyl sulfoxide (DMSO)). The 50% cytotoxic concentration (CC50) values calculated from the dose-response curve (Supplementary Figures S2–S5) are shown in Table 1. Overall, a range of cytotoxicities were seen from the four compounds across the […]. The most cytotoxic combination was ZAD-1 and BHK-21 cells, while the least cytotoxic combination was andrographolide and BHK-21 cells (Table 1).
(§2) A549 cells were cultured in ninety-six-well tissue culture plates under standard conditions until the cells reached 90% confluence. The cell culture medium was removed and then cells were incubated with various concentrations of andrographolide (1–100 μM) diluted in complete medium with FBS prior to being cultured for 24 h under standard conditions before analysis using either the Vybrant MTT Cell proliferation assay kit (V13154, Invitrogen) or the alamarBlue (Thermo Fischer Scientific, Waltham, MA, USA) assay kit according to the manufacturers recommendations. Values were determined from 8 (MTT assay) or 3 (alamarBlue) independent replicates. Negative controls (only media and media with 0.1% DMSO) and positive controls (5% DMSO) were included. To determine cell number, cell cultures were trypsinized by the addition of 0.25% Trypsin/0.1% ethylelediaminetetraacetic acid (EDTA) for 3 min and then cell suspensions were diluted with 0.4% trypan blue solution. Cells were counted using a hemocytometer. Cell morphology was additionally observed under an inverted microscope after 24 h treatment with various concentrations of each compound.
Figu re S2. Cytotoxicity of ZAD -1 (A), ZA D-2 (B), ZA D-3 (C), and andro grapholide (D) to BHK- 21 (baby hamster kidney) cells. BHK- 21 cells were incubated with various concentrations of each compound for 24 hrs followed by MTT cell viability assay. The experiment was undertaken independently in 4 replicates.
DMSO at the same concentrations was used as a control. 10% ethanol, PBS, and milli- Q water were used as a positive control of cell death. The bars show mean ± SD. […]

The nature of data set [3]: MTT cytotoxicity assay in Vero cells. The data set is classed as cell-based. Conditions: African green monkey, Vero cells (monkey kidney), 24 h post-treatment. The protocol: as §1, §2
Figu re S3. Cytotoxicity of ZAD -1 (A), ZA D-2 (B), ZA D-3 (C), and andro grapholide (D) to Ve r o (monkey kidney) cells. Ve r o cells were incubated with various concentrations of each compound for 24 hrs followed by MTT cell viability assay. The experiment was undertaken independently in 4 replicates. DMSO at the same concentrations was used as a control. 10% ethanol, PBS, and milli- Q water were used as a positive control of cell death. The bars show mean ± SD. […]

The test system of data set [4] is DENV 2. More on the design: method as in PMID 30396090. Particulars: HeLa cells; read-out: EC50 towards DENV 2; cited from earlier work.
The test system of data set [5] is PGK1. The data set is described as follows: 2D-PAGE proteomic analysis of treated A549 cells, PGK1 spot. The format is cell-based, human. Conditions: A549, 25 µM, 24 h. Here is the method: (§3) A549 cells were therefore treated with either vehicle (0.025% DMSO), or with 25 μM of andrographolide or ZAD-1, and at 24 h post-treatment, proteins were prepared and subjected to two-dimension polyacrylamide gel electrophoresis (2D-PAGE). The experiment was undertaken independently in triplicate and representative gels are shown Figure 5, with all replicates being shown in Supplementary Figure S12. […] All of these protein spots were cut from the gels and then subjected to in-gel tryptic digestion followed by mass spectrometry. MASCOT (Matrix Science Inc., Boston, MA, USA) search of the resultant masses identified 4 proteins (Table 3), namely heat shock protein 70 kDa 1A (HSPA1A), phosphoglycerate kinase 1 (PGK1), transketolase (TKT) and nuclear transport protein of GTP-binding nuclear protein Ran (Ran).
(§4) 2D-PAGE and mass spectroscopic identification of differentially expressed spots was undertaken essentially as previously described. […] Image data were analyzed using Image Master™ 2D Platinum software version 7.0 (GenBio, Geneva, Switzerland). Each spot was evaluated on intensity, volume and area. […] After tryptic in-gel digestion, peptide masses were determined by LC-MS/MS using SYNAPT high definition MS (HDMS) (Waters Corp., Milford, MA, USA).

In data set [6] the test system is DENV 2. More on the design: method as in PMID 30396090. Conditions: HepG2 cells; read-out: EC50 towards DENV 2; cited from earlier work.
Data set [7] relates to HSPA1A. Briefly: 2D-PAGE proteomic analysis of treated A549 cells, HSPA1A spot. Conditions: A549, 25 µM, 24 h. The data set is classed as cell-based, human. Here is the method: as §3, §4

Read-outs that look alike come from different tables or passages of the source.

These results are taken from PMC7662321, “Andrographolide and Its 14-Aryloxy Analogues Inhibit Zika and Dengue Virus Infection” (Molecules, 2020).

Consider `C=C1CC[C@@H]2[C@](C)(CO)[C@H](O)CC[C@@]2(C)[C@@H]1C/C=C1/C(=O)OC[C@H]1O` [Andrographolide], for which the bioavailability entry in data set [1] is “relatively poor”. Besides, the CC50 at 24 h in data set [2] was 600 ± 75 µM; in data set [3], 469 ± 73 µM. Besides, the EC50 is 22.7 µM in data set [4] and 21.3 µM in data set [6]. The “Intensity Level, spot 3 PGK1” value in data set [5] turned out to be 1053.31. In data set [7], the “Intensity Level, spot 1 HSPA1A” value came out at 2410.2.
Turning to `C=C1CC[C@@H]2[C@]3(C)COC(C)(C)O[C@@H]3CC[C@@]2(C)[C@@H]1C/C=C1/C(=O)OC[C@@H]1Oc1c(Cl)cc(Cl)c2ccc(C)nc12` [ZAD-1], the CC50 at 24 h was 136 ± 6 µM in data set [2] and 510 ± 53 µM in data set [3]. In addition, the “Intensity Level, spot 3 PGK1” value in data set [5] was found to be 2509.31. The “Intensity Level, spot 1 HSPA1A” value in data set [7] was 1279.25.
